Source: patent publication US11345681B1, “Inhibitors of fibroblast growth factor receptor kinases” (Kinnate Biopharma Inc., priority 2020, dated 2022)

biological target: Wild type FGFR2 (Homo sapiens (Human), UniProt P21802); experiment: FGFR2 kinase assay (fluorescence-based microfluidic mobility shift assay); type: biochemical; settings: wild type FGFR2 0.06 nM, 100 μM ATP, 80 minutes at room temperature; class symbols
Sequence (P21802 22-821): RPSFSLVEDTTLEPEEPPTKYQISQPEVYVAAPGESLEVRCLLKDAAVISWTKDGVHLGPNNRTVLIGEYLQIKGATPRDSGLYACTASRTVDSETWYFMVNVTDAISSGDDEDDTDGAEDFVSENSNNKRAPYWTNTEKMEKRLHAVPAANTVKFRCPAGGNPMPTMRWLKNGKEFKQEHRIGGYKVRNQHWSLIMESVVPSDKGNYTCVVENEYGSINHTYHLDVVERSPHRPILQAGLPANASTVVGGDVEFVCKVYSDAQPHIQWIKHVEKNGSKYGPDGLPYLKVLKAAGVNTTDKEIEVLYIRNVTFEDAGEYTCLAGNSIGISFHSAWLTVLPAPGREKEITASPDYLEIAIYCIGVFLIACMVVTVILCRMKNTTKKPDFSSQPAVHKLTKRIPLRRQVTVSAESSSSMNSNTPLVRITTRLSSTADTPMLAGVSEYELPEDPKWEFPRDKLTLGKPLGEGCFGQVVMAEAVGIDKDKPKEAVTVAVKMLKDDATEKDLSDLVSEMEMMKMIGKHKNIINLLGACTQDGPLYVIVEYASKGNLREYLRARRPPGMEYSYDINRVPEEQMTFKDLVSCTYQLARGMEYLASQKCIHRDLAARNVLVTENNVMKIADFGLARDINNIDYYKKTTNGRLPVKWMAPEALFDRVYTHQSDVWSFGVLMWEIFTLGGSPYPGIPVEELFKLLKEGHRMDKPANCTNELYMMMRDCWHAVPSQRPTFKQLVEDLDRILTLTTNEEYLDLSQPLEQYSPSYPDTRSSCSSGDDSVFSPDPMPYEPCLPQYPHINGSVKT

Structure (SMILES)	IC50 [nM]
C=CC(=O)N1C[C@@H](n2cc(C#Cc3cc(F)c4c(c3)ncn4C)c(C(N)=O)c2NC)C[C@@H]1COC [Example 121, 1-((3S,5S)-1-Acryloyl-5-(methoxymethy)pyrrolidin-3-yl)-3-((7-fluoro-1-methyl-1H-benzo[d]imidazol-5-yl)ethynyl)-5-(methylamino)-1H-pyrazole-4-carboxamide]	≤ 100
C=CC(=O)N1C[C@@H](n2nc(C#Cc3cn4ncnc4cc3F)c(C(N)=O)c2NC)C[C@@H]1COC [Example 122, 3-(2-[7-Fluoro-[1,2,4]triazolo[1,5-a]pyridin-6-yl]ethynyl)-1-[(3S,5R)-5-(methoxymethyl)-1-(prop-2-enoyl)pyrrolidin-3-yl]-5-(methylamino)pyrazole-4-carboxamide]	100 to 1000
C=CC(=O)N1CC[C@H](n2nc(C#Cc3c(F)cc4c(ncn4CC)c3F)c(C(N)=O)c2NCCO)C1 [Example 123, 3-[2-(1-Ethyl-4,6-difluoro-1,3-benzodiazol-5-yl)ethynyl]-5-[(2-hydroxyethyl)amino]-1-[(3S)-1-(prop-2-enoyl)pyrrolidin-3-yl]pyrazole-4-carboxamide]	≤ 100
C=CC(=O)N1C[C@@H](n2nc(C#Cc3cc4ncn(CC)c4c(F)c3F)c(C(N)=O)c2NC)C[C@@H]1COC [Example 125, 3-[2-(1-Ethyl-6,7-difluoro-1,3-benzodiazol-5-yl)ethynyl]-1-[(3S,5R)-5-(methoxymethyl)-1-(prop-2-enoyl)pyrrolidin-3-yl]-5-(methylamino)pyrazole-4-carboxamide]	≤ 100
C=CC(=O)N1C[C@@H](n2nc(C#Cc3cc4ncn(CC)c4c(F)c3Cl)c(C(N)=O)c2NC)C[C@@H]1COC [Example 126, 3-[2-(6-Chloro-1-ethyl-7-fluoro-1,3-benzodiazol-5-yl)ethynyl]-1-[(3S,5R)-5-(methoxymethyl)-1-(prop-2-enoyl)pyrrolidin-3-yl]-5-(methylamino)pyrazole-4-carboxamide]	≤ 100
C=CC(=O)N1C[C@@H](n2nc(C#Cc3cc4nc(C)n(C)c4c(F)c3F)c(C(N)=O)c2NC)C[C@@H]1COC [Example 127, 3-[2-(6,7-Difluoro-1,2-dimethyl-1,3-benzodiazol-5-yl)ethynyl]-1-[(3S,5R)-5-(methoxymethyl)-1-(prop-2-enoyl)pyrrolidin-3-yl]-5-(methylamino) pyrazole-4-carboxamide]	≤ 100
C=CC(=O)N1C[C@@H](n2nc(C#Cc3cc4nc(C)n(C)c4c(F)c3Cl)c(C(N)=O)c2NC)C[C@@H]1COC [Example 128, 3-[2-(6-Chloro-7-fluoro-1,2-dimethyl-1,3-benzodiazol-5-yl)ethynyl]-1-[(3S,5R)-5-(methoxymethyl)-1-(prop-2-enoyl)pyrrolidin-3-yl]-5-(methylamino)pyrazole-4-carboxamide]	≤ 100
C=C(F)C(=O)N1C[C@@H](n2nc(C#Cc3cc4ncn(CC)c4cc3Cl)c(C(N)=O)c2NC)C[C@@H]1COC [Example 129, 3-[2-(6-Chloro-1-ethyl-1,3-benzodiazol-5-yl)ethynyl]-1-[(3S,5R)-1-(2-fluoroprop-2-enoyl)-5-(methoxymethyl)pyrrolidin-3-yl]-5-(methylamino)pyrazole-4-carboxamide]	100 to 1000
C=CC(=O)N1C[C@@H](n2nc(C#Cc3cc4ncnn4cc3F)c(C(N)=O)c2NC)C[C@@H]1COC [Example 130, 3-(2-[6-Fluoro-[1,2,4]triazolo[1,5-a]pyridin-7-yl]-ethynyl)-1-[(3S,5R)-5-(methoxymethyl)-1-(prop-2-enoyl)pyrrolidin-3-yl]-5-(methylamino)pyrazole-4-carboxamide]	≤ 100
C=CC(=O)N1C[C@@H](n2nc(C#Cc3cc4nccn4cc3F)c(C(N)=O)c2NC)C[C@@H]1COC [Example 132, 1-((3S,5R)-1-Acryloyl-5-(methoxymethyl)pyrrolidin-3-yl)-3-((6-fluoroimidazo[1,2-a]pyridin-7-yl)ethynyl)-5-(methylamino)-1H-pyrazole-4-carboxamide]	≤ 100
C=CC(=O)N1C[C@@H](n2nc(C#Cc3c(Cl)cc4c(nc(C)n4C)c3F)c(C(N)=O)c2NC)C[C@@H]1COC [Example 133, 3-[2-(6-Chloro-4-fluoro-1,2-dimethyl-1,3-benzodiazol-5-yl)ethynyl]-1-[(3S,5R)-5-(methoxymethyl)-1-(prop-2-enoyl)pyrrolidin-3-yl]-5-(methylamino)pyrazole-4-carboxamide]	≤ 100
C=CC(=O)N1CC[C@H](n2nc(C#Cc3cc4ncn(C5CC5)c4cc3F)c(C(N)=O)c2NC)C1 [Example 136, 3-[2-(1-Cyclopropyl-6-fluoro-1,3-benzodiazol-5-yl)ethynyl]-5-(methylamino)-1-[(3S)-1-(prop-2-enoyl)pyrrolidin-3-yl]pyrazole-4-carboxamide]	≤ 100
CC#CC(=O)N1C[C@@H](n2nc(C#Cc3c(F)cc4c(ncn4CC)c3F)c(C(N)=O)c2NC)C[C@@H]1COC [Example 137, 1-[(3S,5R)-1-(but-2-ynoyl)-5-(methoxymethyl)pyrrolidin-3-yl]-3-[2-(1-ethyl-4,6-difluoro-1,3-benzodiazol-5-yl)ethynyl]-5-(methylamino)pyrazole-4-carboxamide]	≤ 100
[2H]C([2H])([2H])OC[C@H]1C[C@H](n2nc(C#Cc3cc4ncn(CC)c4cc3Cl)c(C(N)=O)c2NC)CN1C(=O)C=C [Example 138, 1-((3S,5R)-1-acryloyl-5-((methoxy-d3)methyl)pyrrolidin-3-yl)-3-((6-chloro-1-ethyl-1H-benzo[d]imidazol-5-yl)ethynyl)-5-(methylamino)-1H-pyrazole-4-carboxamide]	≤ 100
C=CC(=O)N1CC[C@H](n2nc(C#Cc3cc4ncn(C)c4cc3F)c(C(N)=O)c2NC)C1 [Example 139, 3-[2-(6-Fluoro-1-methyl-1,3-benzodiazol-5-yl)ethynyl]-5-(methylamino)-1-[(3S)-1-(prop-2-enoyl)pyrrolidin-3-yl]pyrazole-4-carboxamide]	≤ 100
C=CC(=O)N1CC[C@H](n2nc(C#Cc3cc4ncn(CC)c4c(F)c3F)c(C(N)=O)c2NC)C1 [Example 140, 3-[2-(1-Ethyl-6,7-difluoro-1,3-benzodiazol-5-yl)ethynyl]-5-(methylamino)-1-[(3S)-1-(prop-2-enoyl)pyrrolidin-3-yl]pyrazole-4-carboxamide]	≤ 100
C=CC(=O)N1CC[C@H](n2nc(C#Cc3cc4ncn(CC)c4c(F)c3Cl)c(C(N)=O)c2NC)C1 [Example 141, 3-[2-(6-Chloro-1-ethyl-7-fluoro-1,3-benzodiazol-5-yl)ethynyl]-5-(methylamino)-1-[(3S)-1-(prop-2-enoyl)pyrrolidin-3-yl]pyrazole-4-carboxamide]	≤ 100
C=CC(=O)N1CC[C@H](n2nc(C#Cc3cc4ncn(C)c4c(F)c3Cl)c(C(N)=O)c2NC)C1 [Example 142, 3-[2-(6-Chloro-7-fluoro-1-methyl-1,3-benzodiazol-5-yl)ethynyl]-5-(methylamino)-1-[(3S)-1-(prop-2-enoyl)pyrrolidin-3-yl]pyrazole-4-carboxamide]	≤ 100
C=CC(=O)N1CC[C@H](n2nc(C#Cc3cc4ncn(CC)c4cc3F)c(C(N)=O)c2NC)C1 [Example 143, 3-[2-(1-Ethyl-6-fluoro-1,3-benzodiazol-5-yl)ethynyl]-5-(methylamino)-1-[(3S)-1-(prop-2-enoyl)pyrrolidin-3-yl]pyrazole-4-carboxamide]	≤ 100
C=CC(=O)N1CC[C@H](n2nc(C#Cc3cc4ncn(C)c4cc3Cl)c(C(N)=O)c2NC)C1 [Example 144, 3-[2-(6-Chloro-1-methyl-1,3-benzodiazol-5-yl)ethynyl]-5-(methylamino)-1-[(3S)-1-(prop-2-enoyl)pyrrolidin-3-yl]pyrazole-4-carboxamide]	≤ 100
C=CC(=O)N1CC[C@H](n2nc(C#Cc3cc4ncn(C)c4c(F)c3F)c(C(N)=O)c2NC)C1 [Example 145, 3-[2-(6,7-Difluoro-1-methyl-1,3-benzodiazol-5-yl)ethynyl]-5-(methylamino)-1-[(3S)-1-(prop-2-enoyl)pyrrolidin-3-yl]pyrazole-4-carboxamide]	≤ 100
C=CC(=O)N1C[C@@H](n2nc(C#Cc3cc4ncn(C5CC5)c4c(F)c3Cl)c(C(N)=O)c2NC)C[C@@H]1COC [Example 147, 3-[2-(6-Chloro-1-cyclopropyl-7-fluoro-1,3-benzodiazol-5-yl)ethynyl]-1-[(3S,5R)-5-(methoxymethyl)-1-(prop-2-enoyl)pyrrolidin-3-yl]-5-(methylamino)pyrazole-4-carboxamide]	≤ 100
C=CC(=O)N1C[C@@H](n2nc(C#Cc3cc4ncn(C)c4cc3F)c(C(N)=O)c2NC)C[C@@H]1CF [Example 148, 3-[2-(6-Fluoro-1-methyl-1,3-benzodiazol-5-yl)ethynyl]-1-[(3S,5R)-5-(fluoromethyl)-1-(prop-2-enoyl)pyrrolidin-3-yl]-5-(methylamino)pyrazole-4-carboxamide]	≤ 100
C=CC(=O)N1C[C@@H](n2nc(C#Cc3c(F)c(F)c4c(nc(C)n4C)c3F)c(C(N)=O)c2NC)C[C@@H]1COC [Example 149, 1-[(3S,5R)-5-(Methoxymethyl)-1-(prop-2-enoyl)pyrrolidin-3-yl]-5-(methylamino)-3-[2-(4,6,7-trifluoro-1,2-dimethyl-1,3-benzodiazol-5-yl)ethynyl]pyrazole-4-carboxamide]	≤ 100
C=CC(=O)N1C[C@@H](n2nc(C#Cc3cc4nc(C)n(C5CC5)c4cc3F)c(C(N)=O)c2NC)C[C@@H]1COC [Example 150, 3-[2-(1-Cyclopropyl-6-fluoro-2-methyl-1,3-benzodiazol-5-yl)ethynyl]-1-[(3S,5R)-5-(methoxymethyl)-1-(prop-2-enoyl)pyrrolidin-3-yl]-5-(methylamino)pyrazole-4-carboxamide]	≤ 100
C=CC(=O)N1C[C@@H](n2nc(C#Cc3cc4ncn(C5CC5)c4c(F)c3F)c(C(N)=O)c2NC)C[C@@H]1COC [Example 151, 3-[2-(1-Cyclopropy-6,7-difluoro-1,3-benzodiazol-5-yl)ethynyl]-1-[(3S,5R)-5-(methoxymethyl)-1-(prop-2-enoyl)pyrrolidin-3-yl]-5-(methylamino)pyrazole-4-carboxamide]	≤ 100
